Measurements from patent US11857601B2, “Pharmaceutical composition for cancer treatment comprising fusion protein including IL-2 protein and CD80 protein and anticancer drug” (GI INNOVATION, INC., priority 2020, dated 2024).
Marks after values point to notes of the source that are not given here.

Assays:
[1] = test system: CT26 (mouse colon carcinoma) cells; experiment: mGI-101 and Galunisertib in CT26 allotransplanted tumor model; assay type: in vivo, BALB/cAnHsd mice; settings: mean ± SD, mGI-101 3 mg/kg IP, Galunisertib 75 mg/kg PO
Method: 6-week-old male BALB/cAnHsd mice were purchased and used for the test.
The tumor size was measured three times a week for 3 weeks from the day of start of administration of the test substance. The major axis and minor axis of the tumor were measured using a caliper, and the tumor size (tumor volume, TV) was calculated using the following equations. TV (mm^3)=(W^2×L)/2 [Equation 1]

[2] = test system: CT26 cells; experiment: mGI-101 and Lenvatinib in CT26 allotransplanted tumor model; assay type: in vivo, BALB/c mice; settings: end of the experiment, 10 mice per group
Method: CT26 cells were purchased from ATCC (USA) and cultured in RPMI1640 medium (Gibco) containing 10% FBS (Gibco) and 1% antibiotic/antifungal agent (Gibco). The cultured cells were harvested using trypsin (Gibco) and then suspended in PBS. In order to establish an allotransplanted tumor model, 1×10^6 CT26 cells were subcutaneously injected into the right flank of BALB/c female mice (7-week-old).
A certain period of time after the cell transplantation, the tumor volume was measured for animals with no abnormalities in the health condition of the animals, and the mice were assigned so that the average tumor volume of each group was less than 70-100 mm^3, each group including 10 mice.
In the case of Lenvatinib powder, the dose was calculated and weighed, and it was prepared to the dose concentration using a 0.5% methyl cellulose excipient. In order to minimize the loss of the test substance, the doses for 3 or 4 days were weighed, and prepared using the excipient on the day of administration and injected.
Clinical symptoms such as a disease and a behavioral change were observed once a day during the test period, and deceased animals were identified, and the mice were sacrificed when the tumor size reached a size of 4,000 mm^3.
The tumor volume before administration of each subject was set as the value measured at the time of grouping.
All statistical calculations were performed using Prism 8.0 (Graph Pad Software Inc, USA). The comparison of tumor volume measurements was made through two-way analysis of variance followed by Tukey's multiple comparison test. A p value of less than 0.05 was considered significant.

[3] = test system: CT-26 cancer cell line; experiment: GI101 in mice transplanted with CT-26 (Exp. Ex. 16.1); assay type: in vivo, BALB/c mice
Method: The tumor size was measured daily.

[4] = test system: immune cells in cancer tissues; experiment: Immune cell analysis in LL/2 cancer tissue (FACS); assay type: in vivo, C57BL/6 mice
Method: The mice of each group in Experimental Example 16.1 were sacrificed when the tumor volume reached an average of 200 mm^3, and cancer tissues were collected.
Thereafter, FACS analysis was performed in the same manner as Experimental Example 16.2. to analyze immune cells in the cancer tissues.

[5] = test system: MDA-MB-231 cells; experiment: Cancer cell killing, GI-101 and Ribociclib, MDA-MB-231 with PBMCs; assay type: cell-based, human; settings: GI-101 100 nM, Ribociclib 913 nM, 24 hours, compared with co-culturing only cancer cells and PBMCs
Text: This experiment was to evaluate the effect of killing cancer cells by treating MDA-MB-231 cells (human breast cancer cells) with the test substance GI-101 alone or in combination with Ribociclib substance in an in vitro environment.
MDA-MB-231 cells were purchased from the Korea cell line bank and cultured in RPMI1640 medium (Gibco) containing 10% FBS (Gibco) and 1% antibiotic/antifungal agent (Gibco). For use in cancer cell killing test, the cells were harvested using trypsin (Gibco), and then suspended in RPMI1640 medium, and then dead cells and debris were removed using Ficoll (GE Healthcare Life Sciences) solution. The cells suspended in RPMI1640 medium were carefully layered on ficoll solution. […]
In order to identify the effect of killing the cells, a CytoTox Green reagent ([…]™ CytoTox Green, Satorius) that binds to the DNA of cells to be killed was prepared in 1 μl per 1 mL of RPMI1640 medium containing 5% human AB serum (Sigma). The prepared medium was used for dilution of the test substance, and the effect of killing the cells could be quantitatively identified by staining the cells to be killed when the test substance was co-cultured with cancer cell lines and PBMCs. […]

Substance | Tumor size ([1]; Day 0) [mm^3] | Tumor growth inhibition ([1]; Day 2) [%] | Tumor size ([1]; Day 2) [mm^3] | Tumor growth inhibition ([1]; Day 4) [%] | Tumor size ([1]; Day 4) | Tumor growth inhibition ([1]; Day 7) | Tumor size ([1]; Day 7) | number of mice with tumor growth inhibition rate of 30% or more [2] [mice] | number of mice with tumor growth inhibition rate of 50% or more [2] [mice] | number of mice with tumor growth inhibition rate of 80% or more [2] [mice] | tumor inhibitory effect ([3]; GI101 0.1 mg/kg, compared with anti-PD-1 antibody group (p<0.05)) | Tumor growth inhibition ([3]; GI101 0.1 or 1 mg/kg, anti-PD-1 5 mg/kg, anti-CTLA-4 5 mg/kg i.v., vs negative control) | CD8+ T cells in cancer tissue ([4]; 0.1 mg/kg, compared with anti-PD-1 antibody alone) | level of CD86 expression in macrophages and dendritic cells ([4]; all GI101 groups) | level of expression of IFN-γ ([4]; all GI101 groups, vs negative control) | effect of killing cancer cells [5]
mGI101: fusion protein: mouse CD80, Ig hinge, Fc domain, linker, IL-2 variant (2M) (R38A, F42A); SEQ ID NO: 15 | 61.96 ± 11.81 | 21.91 ± 53.41 | 177.83 ± 78.22 | 46.07 ± 35.1 | 224.56 ± 105.31** mm^3 | 46.48 ± 36.39 (9) % | 291.81 ± 155.23 (9)* mm^3 | 6 | 2 | 1 | – | – | – | – | – | –
GI101: fusion protein: human CD80 fragment, Ig hinge, Fc domain, linker, IL-2 variant (2M) (R38A, F42A); SEQ ID NO: 9 | – | – | – | – | – | – | – | – | – | – | significant tumor inhibitory effect | significant tumor growth inhibition | significant increase | increased level | significantly increased level | co-culturing only cancer cells and PBMCs, the effect of killing cancer cells was identified, and tended to be higher than that of treatment with GI-101 alone
